The values below come from ChEMBL document CHEMBL3991601, “The target landscape of clinical kinase drugs” (Science, 2017).

Structures are written as SMILES. Calls of active or inactive are those of the source. Cut-off read from the data, not from the text of the source, for most assays here: actives have a measured Kd and inactives only a lower limit.

The target in experiment [1] is T1, Mitogen-activated protein kinase 15 (Homo sapiens, UniProt Q8TD08).
T1 sequence (Q8TD08 whole entry): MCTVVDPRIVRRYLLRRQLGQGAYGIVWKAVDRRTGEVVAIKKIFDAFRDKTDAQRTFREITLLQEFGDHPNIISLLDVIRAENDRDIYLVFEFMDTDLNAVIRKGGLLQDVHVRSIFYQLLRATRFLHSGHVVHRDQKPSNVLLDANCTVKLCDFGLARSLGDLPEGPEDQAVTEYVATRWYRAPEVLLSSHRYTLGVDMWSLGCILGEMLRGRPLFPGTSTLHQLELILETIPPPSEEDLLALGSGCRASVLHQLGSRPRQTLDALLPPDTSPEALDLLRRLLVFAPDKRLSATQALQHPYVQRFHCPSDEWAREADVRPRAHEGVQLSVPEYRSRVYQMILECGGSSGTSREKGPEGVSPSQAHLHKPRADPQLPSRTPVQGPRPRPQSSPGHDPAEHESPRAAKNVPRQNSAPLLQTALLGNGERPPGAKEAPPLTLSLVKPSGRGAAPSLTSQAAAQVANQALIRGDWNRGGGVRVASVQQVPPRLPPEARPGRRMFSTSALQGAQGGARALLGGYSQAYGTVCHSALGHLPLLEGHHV

Experiment [2] addresses T2, Cytochrome c1, heme protein, mitochondrial (Homo sapiens, UniProt P08574).
T2 sequence (P08574 whole entry): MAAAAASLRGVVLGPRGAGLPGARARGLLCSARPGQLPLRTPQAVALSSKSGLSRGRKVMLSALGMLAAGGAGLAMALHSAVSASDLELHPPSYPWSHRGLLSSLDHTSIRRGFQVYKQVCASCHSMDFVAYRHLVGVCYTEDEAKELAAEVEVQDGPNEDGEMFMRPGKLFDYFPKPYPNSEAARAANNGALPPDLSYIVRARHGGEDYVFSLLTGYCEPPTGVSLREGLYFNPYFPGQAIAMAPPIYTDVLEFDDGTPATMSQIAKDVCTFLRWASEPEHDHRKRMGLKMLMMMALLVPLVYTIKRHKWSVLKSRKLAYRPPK

Another experiment concerns the target T3, Ephrin type-B receptor 3 (Homo sapiens, UniProt P54753).
T3 sequence (P54753 whole entry): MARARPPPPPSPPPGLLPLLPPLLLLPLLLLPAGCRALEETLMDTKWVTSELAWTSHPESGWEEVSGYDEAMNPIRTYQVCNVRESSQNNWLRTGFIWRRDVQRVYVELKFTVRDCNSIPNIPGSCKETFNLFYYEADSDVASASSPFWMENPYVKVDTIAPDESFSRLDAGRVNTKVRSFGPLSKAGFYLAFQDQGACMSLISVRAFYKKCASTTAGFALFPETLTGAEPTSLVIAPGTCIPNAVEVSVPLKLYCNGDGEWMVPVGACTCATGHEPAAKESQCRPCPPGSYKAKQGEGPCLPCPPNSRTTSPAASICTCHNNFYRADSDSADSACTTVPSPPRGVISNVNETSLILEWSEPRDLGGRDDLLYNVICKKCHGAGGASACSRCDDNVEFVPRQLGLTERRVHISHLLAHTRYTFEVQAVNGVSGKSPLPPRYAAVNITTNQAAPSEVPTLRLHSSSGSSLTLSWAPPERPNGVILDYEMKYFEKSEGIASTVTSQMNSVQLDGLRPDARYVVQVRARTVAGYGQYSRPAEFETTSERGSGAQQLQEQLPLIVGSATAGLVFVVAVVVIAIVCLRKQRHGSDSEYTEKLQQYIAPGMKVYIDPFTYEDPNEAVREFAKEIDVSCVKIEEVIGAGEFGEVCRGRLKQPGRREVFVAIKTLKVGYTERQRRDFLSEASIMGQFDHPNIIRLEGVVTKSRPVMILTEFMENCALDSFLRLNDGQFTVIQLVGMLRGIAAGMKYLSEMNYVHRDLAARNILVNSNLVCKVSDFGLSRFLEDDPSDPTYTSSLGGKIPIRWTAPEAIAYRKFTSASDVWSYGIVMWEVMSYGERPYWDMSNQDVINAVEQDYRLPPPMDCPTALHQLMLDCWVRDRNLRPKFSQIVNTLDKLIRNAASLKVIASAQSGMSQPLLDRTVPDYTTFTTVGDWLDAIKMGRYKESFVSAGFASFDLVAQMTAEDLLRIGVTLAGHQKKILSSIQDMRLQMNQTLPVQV

For experiment [3], the target named is T4, Serine/threonine-protein kinase 4 (Homo sapiens, UniProt Q13043).
T4 sequence (Q13043 whole entry): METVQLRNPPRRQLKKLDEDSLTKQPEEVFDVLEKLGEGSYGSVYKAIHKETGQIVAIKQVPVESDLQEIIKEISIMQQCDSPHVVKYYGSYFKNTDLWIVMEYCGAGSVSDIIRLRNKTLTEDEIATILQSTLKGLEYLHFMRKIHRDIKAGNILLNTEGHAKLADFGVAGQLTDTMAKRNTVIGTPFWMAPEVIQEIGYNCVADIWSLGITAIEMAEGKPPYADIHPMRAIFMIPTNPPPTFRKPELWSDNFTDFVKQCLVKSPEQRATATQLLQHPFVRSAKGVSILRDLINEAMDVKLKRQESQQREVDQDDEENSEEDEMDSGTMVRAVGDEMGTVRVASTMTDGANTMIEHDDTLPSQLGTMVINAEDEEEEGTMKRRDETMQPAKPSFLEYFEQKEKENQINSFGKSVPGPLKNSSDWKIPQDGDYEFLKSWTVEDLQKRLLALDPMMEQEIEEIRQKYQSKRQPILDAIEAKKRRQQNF

Experiment [4] has as its target Epithelial discoidin domain-containing receptor 1 (Homo sapiens, UniProt Q08345).
Experiment [5] has as its target Cyclin-dependent kinase 12 (Homo sapiens, UniProt Q9NYV4).
Note: in the data inactive means no Kd found up to 30 µM.

Chain of Cyclin-dependent kinase 12 (Q9NYV4 whole entry): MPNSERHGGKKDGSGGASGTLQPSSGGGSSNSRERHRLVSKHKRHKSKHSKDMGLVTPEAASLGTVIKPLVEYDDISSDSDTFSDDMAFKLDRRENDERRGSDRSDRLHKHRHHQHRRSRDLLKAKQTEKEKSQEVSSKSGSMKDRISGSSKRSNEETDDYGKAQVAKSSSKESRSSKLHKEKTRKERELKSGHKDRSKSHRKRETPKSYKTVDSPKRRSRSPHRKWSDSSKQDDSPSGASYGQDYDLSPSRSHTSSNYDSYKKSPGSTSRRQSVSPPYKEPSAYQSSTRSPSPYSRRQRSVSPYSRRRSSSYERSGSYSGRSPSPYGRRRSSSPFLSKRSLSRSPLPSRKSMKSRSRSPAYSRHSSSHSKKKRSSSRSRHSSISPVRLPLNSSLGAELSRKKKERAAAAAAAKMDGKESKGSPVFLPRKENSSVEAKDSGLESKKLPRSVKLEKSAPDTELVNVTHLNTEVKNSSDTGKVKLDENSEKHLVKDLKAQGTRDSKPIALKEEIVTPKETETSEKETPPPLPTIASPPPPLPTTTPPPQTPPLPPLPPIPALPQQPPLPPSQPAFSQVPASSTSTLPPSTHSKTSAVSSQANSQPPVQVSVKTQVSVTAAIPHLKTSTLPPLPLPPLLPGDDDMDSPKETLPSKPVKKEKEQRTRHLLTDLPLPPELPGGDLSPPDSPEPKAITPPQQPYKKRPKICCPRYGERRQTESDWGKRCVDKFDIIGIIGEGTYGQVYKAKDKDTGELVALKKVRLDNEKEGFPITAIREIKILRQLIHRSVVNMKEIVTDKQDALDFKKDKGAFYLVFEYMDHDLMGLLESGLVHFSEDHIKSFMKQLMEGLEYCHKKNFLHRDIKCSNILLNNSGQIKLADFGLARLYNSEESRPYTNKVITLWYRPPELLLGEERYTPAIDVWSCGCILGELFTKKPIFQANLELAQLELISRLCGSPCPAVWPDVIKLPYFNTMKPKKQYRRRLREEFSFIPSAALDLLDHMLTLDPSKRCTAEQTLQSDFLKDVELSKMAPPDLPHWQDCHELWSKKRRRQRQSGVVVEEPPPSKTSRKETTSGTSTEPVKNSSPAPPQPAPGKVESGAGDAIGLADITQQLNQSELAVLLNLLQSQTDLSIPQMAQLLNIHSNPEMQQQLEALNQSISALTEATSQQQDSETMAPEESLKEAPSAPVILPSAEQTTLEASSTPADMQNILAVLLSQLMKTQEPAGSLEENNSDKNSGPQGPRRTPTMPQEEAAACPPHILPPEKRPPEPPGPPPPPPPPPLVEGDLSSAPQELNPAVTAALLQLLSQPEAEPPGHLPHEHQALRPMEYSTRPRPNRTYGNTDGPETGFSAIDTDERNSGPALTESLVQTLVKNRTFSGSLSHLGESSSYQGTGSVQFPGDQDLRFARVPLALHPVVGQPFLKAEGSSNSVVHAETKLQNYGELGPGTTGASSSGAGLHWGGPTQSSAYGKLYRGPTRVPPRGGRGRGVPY
Chain of Epithelial discoidin domain-containing receptor 1 (Q08345 whole entry, the tested form may be a part): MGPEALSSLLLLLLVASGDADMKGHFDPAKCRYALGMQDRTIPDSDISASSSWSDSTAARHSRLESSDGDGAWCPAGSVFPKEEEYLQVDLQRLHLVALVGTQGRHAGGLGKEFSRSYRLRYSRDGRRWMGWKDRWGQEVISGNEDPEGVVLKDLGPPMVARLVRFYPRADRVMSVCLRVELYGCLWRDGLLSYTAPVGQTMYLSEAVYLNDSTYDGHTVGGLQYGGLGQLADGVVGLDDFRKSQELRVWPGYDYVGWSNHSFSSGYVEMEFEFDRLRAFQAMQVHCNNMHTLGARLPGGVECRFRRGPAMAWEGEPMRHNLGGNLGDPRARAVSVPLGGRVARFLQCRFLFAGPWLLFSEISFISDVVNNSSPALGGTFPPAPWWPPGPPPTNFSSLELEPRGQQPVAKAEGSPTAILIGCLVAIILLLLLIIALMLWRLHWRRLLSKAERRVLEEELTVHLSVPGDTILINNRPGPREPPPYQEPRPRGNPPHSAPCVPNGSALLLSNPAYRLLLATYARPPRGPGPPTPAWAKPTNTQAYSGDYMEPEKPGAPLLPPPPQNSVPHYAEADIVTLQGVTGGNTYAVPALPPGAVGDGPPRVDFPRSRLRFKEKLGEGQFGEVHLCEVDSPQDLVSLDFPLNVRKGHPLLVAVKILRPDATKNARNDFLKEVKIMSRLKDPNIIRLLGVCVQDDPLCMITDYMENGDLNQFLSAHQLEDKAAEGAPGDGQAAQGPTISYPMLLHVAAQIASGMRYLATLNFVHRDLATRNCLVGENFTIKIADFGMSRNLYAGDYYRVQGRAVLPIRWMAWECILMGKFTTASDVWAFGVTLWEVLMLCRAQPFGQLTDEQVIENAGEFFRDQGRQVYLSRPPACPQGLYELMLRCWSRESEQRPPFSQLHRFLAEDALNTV

On to `C[C@@H](Nc1cc(F)cc(F)c1)c1cc(C(=O)N(C)C)cc2c(=O)cc(N3CCOCC3)oc12` [AZD-8186], for which the Kd (in experiment [1]; in experiment [2]; on Ephrin type-B receptor 3; in experiment [3]; in experiment [4]; in experiment [5]) was > 30 µM (inactive) in each case.
Regarding `COc1cc(OC)c(/C=C/S(=O)(=O)Cc2ccc(OC)c(NCC(=O)O)c2)c(OC)c1` [RIGOSERTIB], the Kd (in experiment [1]; in experiment [2]; on Ephrin type-B receptor 3; in experiment [3]; in experiment [4]; in experiment [5]) was > 30 µM (inactive) each time.
As for `CC[C@H](Nc1ncnc2[nH]cnc12)c1nc2cccc(F)c2c(=O)n1-c1ccccc1` [IDELALISIB], the Kd (in experiment [1]; in experiment [2]; at Ephrin type-B receptor 3; in experiment [3]; in experiment [4]; in experiment [5]) was > 30 µM (inactive) each time.
Turning to `C[C@@H](c1ccc2nccn2c1)n1nnc2ncc(-c3cnn(C)c3)nc21` [SAVOLITINIB], the Kd (in experiment [1]; in experiment [2]; on Ephrin type-B receptor 3; in experiment [3]; in experiment [4]; in experiment [5]) was > 30 µM (inactive) each time.
Consider `CN1N=C(N)c2cn([C@@H]3O[C@H](COP(=O)(O)O)[C@@H](O)[C@H]3O)c3ncnc1c23` [TRICIRIBINE PHOSPHATE], for which the Kd (in experiment [1]; in experiment [2]; at Ephrin type-B receptor 3; in experiment [3]; in experiment [4]; in experiment [5]) was > 30 µM (inactive) in each case.
Take `CNC(=O)CN1CCC(Oc2cc3c(Nc4cccc(Cl)c4F)ncnc3cc2OC)CC1` [SAPITINIB]: the Kd (in experiment [1]; in experiment [2]; at Ephrin type-B receptor 3; in experiment [3]; in experiment [4]; in experiment [5]) was > 30 µM (inactive) in each case.
With `O=C(c1ccc(F)c(F)c1Nc1ccc(I)cc1F)N1CC(O)([C@@H]2CCCCN2)C1` [COBIMETINIB], the Kd (in experiment [1]; in experiment [2]; at Ephrin type-B receptor 3; in experiment [3]; in experiment [4]; in experiment [5]) was > 30 µM (inactive) each time.
Regarding `Cc1ccc(S(=O)(=O)Nc2nc3ccccc3nc2Nc2ccc3nsnc3c2)cc1`, the Kd (in experiment [1]; in experiment [2]; at Ephrin type-B receptor 3; in experiment [3]; in experiment [4]; in experiment [5]) was > 30 µM (inactive) in each case.
Consider `CCS(=O)(=O)N1CC(CC#N)(n2cc(-c3ncnc4[nH]ccc34)cn2)C1` [BARICITINIB], for which the Kd (in experiment [1]; in experiment [2]; at Ephrin type-B receptor 3; in experiment [3]; in experiment [4]; in experiment [5]) was > 30 µM (inactive) throughout.
On to `Cc1nc(N)sc1-c1ccnc(Nc2ccc(N3CCOCC3)cc2)n1` [CYC-116], for which the Kd (in experiment [1]; in experiment [2]; at Ephrin type-B receptor 3; in experiment [4]; in experiment [5]) was > 30 µM (inactive) in each case.
Turning to `Cc1cc(Nc2cc(N3CCN(C)CC3)nc(/C=C/c3ccccc3)n2)n[nH]1` [ENMD-2076], the Kd – broadly, the free concentration of one partner at which half of the binding sites on the other are occupied at equilibrium, for simple one-to-one binding – in experiment [1] was > 30 µM (inactive); in experiment [2], > 30 µM (inactive); on Ephrin type-B receptor 3, > 30 µM (inactive); in experiment [4], 0.755 µM (active); in experiment [5] it was > 30 µM (inactive).
In the case of `Cc1ccc(NC(=O)c2ccc(CN3CC[C@H](N(C)C)C3)c(C(F)(F)F)c2)cc1Nc1nccc(-c2cncnc2)n1` [BAFETINIB], the Kd was > 30 µM (inactive) in experiment [1]; > 30 µM (inactive) in experiment [2]; 4.55 µM (active) on Ephrin type-B receptor 3; > 30 µM (inactive) in experiment [3]; 0.014 µM (active) in experiment [4]; > 30 µM (inactive) in experiment [5].
In the case of `Nc1nc(N)c2nc(-c3cccc(O)c3)c(-c3cccc(O)c3)nc2n1` [TG100-115], the Kd in experiment [5] was > 30 µM (inactive).
As for `CN1CCN(c2ccc3nc(-c4c(N)c5c(F)cccc5[nH]c4=O)[nH]c3c2)CC1` [DOVITINIB], the Kd in experiment [2] and in experiment [5] was > 30 µM (inactive) throughout.
Regarding `COc1cc2nccc(Oc3ccc(NC(=O)Nc4cc(C)on4)c(Cl)c3)c2cc1OC` [TIVOZANIB], the Kd is > 30 µM (inactive) in experiment [2]; 5.43 µM (active) on Ephrin type-B receptor 3; > 30 µM (inactive) in experiment [3]; 0.19 µM (active) in experiment [4]; > 30 µM (inactive) in experiment [5].
As for `CCc1cnn2c(NCc3ccc[n+]([O-])c3)cc(N3CCCC[C@H]3CCO)nc12` [DINACICLIB], the Kd (in experiment [1]; in experiment [2]; on Ephrin type-B receptor 3; in experiment [3]; in experiment [4]) was > 30 µM (inactive) each time.
With `COCCNCc1ccc(-c2cc3nccc(Oc4ccc(NC(=S)NC(=O)Cc5ccc(F)cc5)cc4F)c3s2)nc1` [GLESATINIB], the Kd (in experiment [1]; in experiment [2]; on Ephrin type-B receptor 3; in experiment [3]; in experiment [5]) was > 30 µM (inactive) in each case.
As for `COc1cc(CCc2cc(NC(=O)c3ccc(N4C[C@@H](C)N[C@@H](C)C4)cc3)n[nH]2)cc(OC)c1` [AZD-4547], the Kd (in experiment [1]; in experiment [2]; at Ephrin type-B receptor 3; in experiment [3]; in experiment [5]) was > 30 µM (inactive) each time.
Regarding `CCn1c(-c2nonc2N)nc2c(C#CC(C)(C)O)ncc(OC[C@H]3CCCNC3)c21` [GSK-690693], the Kd in experiment [2] and in experiment [5] was > 30 µM (inactive) in each case.
As for `Cc1cn(-c2cc(NC(=O)c3ccc(C)c(Nc4nccc(-c5cccnc5)n4)c3)cc(C(F)(F)F)c2)cn1` [NILOTINIB], the Kd in experiment [2] and in experiment [5] was > 30 µM (inactive) each time.
